We go through 18 molecules from patent US8299252B2, “Pyrazolopyridine and pyrrolopyridine multikinase inhibitors” (Chugai Seiyaku Kabushiki Kaisha, priority 2005, dated 2012).

Data set [1] relates to human umbilical vein endothelial cells (HUVEC), VEGF-dependent proliferation. The data set can be described thus: VEGF-dependent HUVEC proliferation inhibition assay. The class given is cell-based. The conditions noted are these: read-out: 50% proliferation inhibitory concentration (IC50 value) HUVEC (VEGF-dependent), 20 ng/mL of VEGF, 72 hours, WST-1. As for the experimental part: (§1) The compounds according to the present invention were measured for cancer cell proliferation inhibitory activity and human umbilical vein endothelial cell (HUVEC) proliferation inhibitory activity.
(§2) Test compounds were serially diluted with dimethyl sulfoxide and then diluted 50 times with Ca^2+- and Mg^2+-free phosphate-buffered saline, and 20 μL of each of the resulting solution was dispensed into a 96-well plate. […] Each cell suspension contains approximately 3000 cells/180 μL. These cell suspensions were dispensed to the plate containing the test compounds at 180 μL/well and incubated in a 5% carbon dioxide gas incubator at 37° C. for 72 hours. 20 μL of WST-8 (HCT116, Dojin) or WST-1 (HUVEC, Roche Diagnostics) was added to each well, and absorbance at 450 nm (reference wavelength: 650 nm) was measured.
(Tetrazolium dyes change colour on reduction, which living cells bring about.)

Data set [2] addresses KDR intracellular domain protein (Homo sapiens, UniProt P35968). Put plainly: KDR enzyme inhibition assay (biotinylated peptide phosphorylation, HTRF). The conditions noted are these: phosphorylation of biotinylated peptide. The class given is biochemical. As for the experimental part: (§3) The compounds according to the present invention were measured for Raf-1 and KDR enzyme inhibitory activities.
(§4) The Raf-1 inhibitory activity was measured by the activity of Raf-1 protein for inhibiting phosphorylation of MEK-1 protein having six histidine residues (His6) fused to the N-terminus thereof. […] The KDR inhibitory activity was measured by the activity of KDR intracellular domain protein for inhibiting phosphorylation of a biotinylated peptide ([…]).

Data set [3] concerns human umbilical vein endothelial cells (HUVEC), VEGF-independent proliferation. Put plainly: VEGF-independent HUVEC proliferation inhibition assay. The class given is cell-based. The settings on record: read-out: 50% proliferation inhibitory concentration (IC50 value) HUVEC (VEGF-independent), vascular endothelial cell growth-promoting agent and heparin, 72 hours, WST-1. As for the experimental part: as §1, §2

The test system of data set [4] is human colon cancer cell line HCT116 cells. Put plainly: Cell proliferation inhibitory activity, HCT116. The class given is cell-based. The conditions noted are these: for IC50: Homo sapiens, HCT-116, read-out: 50% proliferation inhibitory concentration (IC50 value) HCT116, HCT116, 72 hours, WST-8. As for the experimental part: as §1, §2
In another data set the target is Raf-1 (Homo sapiens, UniProt P04049). The data set can be described thus: Raf-1 enzyme inhibition assay (MEK-1 phosphorylation, HTRF). The conditions noted are these: for IC50: phosphorylation of His6-MEK-1. The class given is biochemical. As for the experimental part: as §3, §4
Chain of Raf-1 (P04049 whole entry, the tested form may be a part): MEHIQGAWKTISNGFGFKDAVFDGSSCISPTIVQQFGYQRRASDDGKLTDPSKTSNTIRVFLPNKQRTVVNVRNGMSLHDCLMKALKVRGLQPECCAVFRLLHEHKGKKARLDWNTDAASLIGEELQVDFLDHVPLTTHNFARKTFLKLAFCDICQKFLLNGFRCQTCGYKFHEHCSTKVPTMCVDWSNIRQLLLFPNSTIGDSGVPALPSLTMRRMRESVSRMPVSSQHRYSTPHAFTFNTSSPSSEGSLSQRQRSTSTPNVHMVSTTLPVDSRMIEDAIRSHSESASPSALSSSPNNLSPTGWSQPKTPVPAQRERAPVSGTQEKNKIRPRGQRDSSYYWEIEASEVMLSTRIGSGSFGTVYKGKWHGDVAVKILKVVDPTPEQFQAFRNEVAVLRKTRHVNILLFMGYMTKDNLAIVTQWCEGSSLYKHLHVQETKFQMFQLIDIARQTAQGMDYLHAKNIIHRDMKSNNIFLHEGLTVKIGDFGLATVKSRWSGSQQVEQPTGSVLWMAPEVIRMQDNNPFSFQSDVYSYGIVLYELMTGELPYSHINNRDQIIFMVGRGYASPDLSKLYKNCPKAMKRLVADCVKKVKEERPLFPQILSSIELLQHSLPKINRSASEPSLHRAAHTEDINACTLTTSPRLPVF
Data set [5] concerns the target T1, FLT3 intracellular domain protein (Homo sapiens, UniProt P36888).
T1 sequence (P36888 564-993 limits assumed): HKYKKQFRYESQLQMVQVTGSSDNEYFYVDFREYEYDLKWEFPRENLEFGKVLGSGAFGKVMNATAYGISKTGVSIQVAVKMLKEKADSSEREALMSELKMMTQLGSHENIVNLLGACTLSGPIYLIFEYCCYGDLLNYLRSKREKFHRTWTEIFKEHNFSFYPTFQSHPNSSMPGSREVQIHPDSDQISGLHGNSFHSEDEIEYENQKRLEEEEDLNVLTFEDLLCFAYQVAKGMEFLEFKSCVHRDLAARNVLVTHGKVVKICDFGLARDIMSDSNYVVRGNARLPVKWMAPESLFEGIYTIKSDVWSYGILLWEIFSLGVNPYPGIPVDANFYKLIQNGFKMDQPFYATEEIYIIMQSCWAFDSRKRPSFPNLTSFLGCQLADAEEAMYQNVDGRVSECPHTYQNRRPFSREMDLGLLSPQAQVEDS
Put plainly: Flt3 enzyme inhibition test (HTRF). The class given is biochemical. The conditions noted are these: phosphorylation of biotinylated peptide. As for the experimental part: The FLT3 inhibitory activity was measured by the activity of FLT3 intracellular domain protein inhibiting for phosphorylation of a biotinylated peptide ([…]).
(In TR-FRET formats the signal depends on donor and acceptor labels being close together.)

Data set [6] in a line: Solubility in fasted state simulated intestinal fluid. The class given is physicochemical. The settings on record: pH 6.5, fassif, kinetic from dmso stock, fasted state simulated intestinal fluid (pH6.5), 37° C. As for the experimental part:
2 μL of each dimethyl sulfoxide solutions containing test compounds were dispensed into wells of a 96-well plate, and 200 μL of fasted state simulated intestinal fluid (pH6.5) was added to each well. The plate was shaken at 37° C. for 20 hours. The solution was filtered through a membrane filter, and 101 μL of the filtrate was transferred to a UV plate, followed by addition of 100 μL of a solution mixture of ethanol:water=2:1 thereto. Separately, as a standard, 101 μL of a solution prepared by 2 μL of a dimethyl sulfoxide solution, 4 μL of dimethyl sulfoxide, 400 μL of ethanol, and 200 μL of water was transferred to a UV plate, and 100 μL of fasted state simulated intestinal fluid (pH6.5) was added thereto. The solubility was calculated by the following expression: Solubility=[(absorbance of test solution)−blank]/[(absorbance of standard solution)−blank]×165 μM (165 μM is the concentration of the standard solution) Composition of the fasted state simulated intestinal fluid (pH6.5)
The composition was prepared in compliance with the description in E. Galia, et al., Pharm. Res. 1998, 698.
Taurocholic acid (161 mg), L-α-phosphatidylcholine (59 mg), potassium dihydrogen phosphate (0.39 g), and potassium chloride (0.77 g) were added to about 90 mL of water. The resulting solution was adjusted to a pH of 6.5 with a sodium hydroxide aqueous solution and then diluted to a volume of 100 mL with water. The solution was filtered through a membrane filter.

Structures are written as SMILES. ≈ marks a conversion by molar mass, not a printed value.

Chain of KDR intracellular domain protein (P35968 786-1356 limits assumed): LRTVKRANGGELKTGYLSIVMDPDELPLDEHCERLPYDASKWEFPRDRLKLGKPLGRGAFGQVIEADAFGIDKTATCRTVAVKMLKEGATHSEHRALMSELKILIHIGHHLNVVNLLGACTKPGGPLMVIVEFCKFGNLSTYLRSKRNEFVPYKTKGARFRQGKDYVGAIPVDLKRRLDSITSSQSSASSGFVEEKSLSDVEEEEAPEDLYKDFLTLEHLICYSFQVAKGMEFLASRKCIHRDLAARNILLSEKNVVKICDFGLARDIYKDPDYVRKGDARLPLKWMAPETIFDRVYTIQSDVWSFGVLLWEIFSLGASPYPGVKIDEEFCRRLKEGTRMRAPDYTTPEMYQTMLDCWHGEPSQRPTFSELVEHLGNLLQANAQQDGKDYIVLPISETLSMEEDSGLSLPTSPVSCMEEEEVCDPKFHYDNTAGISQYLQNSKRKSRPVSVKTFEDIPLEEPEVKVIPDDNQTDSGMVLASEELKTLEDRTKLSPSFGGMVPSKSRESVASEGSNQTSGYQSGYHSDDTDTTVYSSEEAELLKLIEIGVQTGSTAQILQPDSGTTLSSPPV

Regarding `O=C(Nc1ccc(Oc2ccnc3[nH]ccc23)cc1)Nc1cc(CCC(F)F)cc(C(F)(F)F)c1` [Compound 32, 1-[3-(3,3-Difluoropropyl)-5-(trifluoromethyl)phenyl]-3-[4-(1H-pyrrolo[2,3-b]pyridin-4-yloxy)phenyl]urea], the IC50 in data set [1] was determined as 15 nM; in data set [2] it was 0.95 nM; in data set [3], 1200 nM; in data set [4], 1500 nM; against Raf-1, 62 nM.

`CCc1ccc(NC(=O)Nc2ccc(Oc3ccnc4[nH]ccc34)cc2)cc1C(F)(F)F` [Compound 55, 1-(4-Ethyl-3-trifluoromethyl-phenyl)-3-[4-(1H-pyrrolo[2,3-b]pyridin-4-yloxy)phenyl]urea]: the IC50 in data set [1] came to 7.2 nM; in data set [2], 8.5 nM; in data set [3], 1400 nM; in data set [4] it was 1500 nM; against Raf-1, 47 nM.

Regarding `O=C(Nc1ccc(F)cc1)Nc1ccc(Oc2ccnc3[nH]ccc23)cc1` [Compound B, reference compound], in data set [4], the “proliferation inhibitory activity for HCT116 cells (in words)” value is “does not have proliferation inhibitory activity”. In addition, the “Raf-1 inhibitory activity (in words)” value on Raf-1 was “does not have Raf-1 inhibitory activity”.

With `O=C(Nc1ccc(Oc2ccnc3[nH]ccc23)cc1)Nc1cc(OC2CCOCC2)cc(C(F)(F)F)c1` [Compound 9, 1-[4-(1H-Pyrrolo[2,3-b]pyridin-4-yloxy)phenyl]-3-[3-(tetrahydro-pyran-4-yloxy)-5-(trifluoromethyl)phenyl]urea], the IC50 in data set [1] worked out at 30 nM; in data set [2], 2.2 nM; in data set [3] it was 1800 nM; in data set [4] it was 1700 nM; against Raf-1, 65 nM.

For orientation: solubility means the dissolved amount per volume that the medium holds. The molecule `O=C(Nc1ccc(Oc2ccnc3[nH]ncc23)cc1)Nc1cc(CCF)cc(C(F)(F)F)c1` [Compound 24, 1-[3-(2-Fluoroethyl)-5-(trifluoromethyl)phenyl]-3-[4-(1H-pyrazolo[3,4-b]pyridin-4-yloxy)phenyl]urea] registered an IC50 in data set [5] of 18 nM. This molecule also returned a solubility at 20 h in data set [6] of 19 µg/mL (≈ 41.4 µM).

In the case of `O=C(Nc1ccc(Oc2ccnc3[nH]ccc23)cc1)Nc1cc(CCCCF)cc(C(F)(F)F)c1` [Compound 38, 1-[3-(4-Fluorobutyl)-5-(trifluoromethyl)phenyl]-3-[4-(1H-pyrrolo[2,3-b]pyridin-4-yloxy)phenyl]urea], the IC50 came out at 1.3 nM in data set [2] and 64 nM on Raf-1.

Consider `C=Cc1ccc(NC(=O)Nc2ccc(Oc3ccnc4[nH]ccc34)cc2)cc1C(F)(F)F` [Compound 56, 1-[4-(1H-Pyrrolo[2,3-b]pyridin-4-yloxy)phenyl]-3-(3-trifluoromethyl-4-vinyl-phenyl)urea], for which the IC50 in data set [1] is 12 nM; in data set [2], 16 nM; in data set [3] it was 3100 nM; in data set [4], 2200 nM; on Raf-1, 70 nM.

With `O=C(Nc1ccc(Oc2ccnc3[nH]ccc23)cc1)Nc1cc(CCCF)cc(C(F)(F)F)c1` [Compound 29, 1-[3-(3-Fluoropropyl)-5-(trifluoromethyl)phenyl]-3-[4-(1H-pyrrolo[2,3-b]pyridin-4-yloxy)phenyl]urea], the IC50 in data set [1] was 8 nM; in data set [2], 9.1 nM; in data set [3], 1100 nM; in data set [4], 1600 nM; against Raf-1, 82 nM.

As for `O=C(Nc1ccc(Oc2ccnc3[nH]ccc23)cc1)Nc1ccc(CCCCF)c(C(F)(F)F)c1` [Compound 34, 1-[4-(4-Fluorobutyl)-3-(trifluoromethyl)phenyl]-3-[4-(1H-pyrrolo[2,3-b]pyridin-4-yloxy)phenyl]urea], the concentration in solution in data set [6] (solubility at 20 h) was 21 µg/mL (≈ 43.2 µM).

In the case of `O=C(Nc1ccc(Oc2ccnc3[nH]ccc23)cc1)Nc1ccc(OCC(F)(F)F)c(C(F)(F)F)c1` [Compound 13, 1-[4-(1H-Pyrrolo[2,3-b]pyridin-4-yloxy)phenyl]-3-[4-(2,2,2-trifluoro-ethoxy)-3-(trifluoromethyl)phenyl]urea], the IC50 in data set [1] turned out to be 7.4 nM; in data set [3], 1200 nM; in data set [4], 3100 nM. Besides, in data set [6], the concentration in solution (solubility at 20 h) was 15 µg/mL (≈ 29.4 µM).

In data set [6], `O=C(Nc1ccc(Oc2ccnc3[nH]ccc23)cc1)Nc1cc(C(F)(F)F)cc(C(F)(F)F)c1` [Compound 50, 1-[3,5-Bis(trifluoromethyl)phenyl]-3-[4-(1H-pyrrolo[2,3-b]pyridin-4-yloxy)phenyl]urea] gave a solubility at 20 h of 35 µg/mL (≈ 72.9 µM).

`O=C(Nc1ccc(Oc2ccnc3[nH]ccc23)cc1)Nc1ccc(OC(F)(F)F)c(C(F)(F)F)c1` [Compound 20, 1-[4-(1H-Pyrrolo[2,3-b]pyridin-4-yloxy)phenyl]-3-[4-trifluoromethoxy-3-(trifluoromethyl)phenyl]urea] yielded a solubility at 20 h in data set [6] of 25 µg/mL (≈ 50.4 µM).

For the molecule `O=C(Nc1ccc(Oc2ccnc3[nH]ccc23)cc1)Nc1cc(CCCC(F)F)cc(C(F)(F)F)c1` [Compound 41, 1-[3-(4,4-Difluorobutyl)-5-(trifluoromethyl)phenyl]-3-[4-(1H-pyrrolo[2,3-b]pyridin-4-yloxy)phenyl]urea], the IC50 is 3.5 nM in data set [2] and 82 nM on Raf-1.

In turn, `O=C(Nc1ccc(Oc2ccnc3[nH]ncc23)cc1)Nc1ccc(CCCCF)c(C(F)(F)F)c1` [Compound 35, 1-[4-(4-Fluorobutyl)-3-(trifluoromethyl)phenyl]-3-[4-(1H-pyrazolo[3,4-b]pyridin-4-yloxy)phenyl]urea] displayed a solubility at 20 h in data set [6] of 18 µg/mL (≈ 36.9 µM).

With `O=C(Nc1ccc(Oc2ccnc3[nH]ccc23)cc1)Nc1ccc2c(CCCF)cccc2c1` [Compound 46, 1-[5-(3-Fluoropropyl)naphthalen-2-yl]-3-[4-(1H-pyrrolo[2,3-b]pyridin-4-yloxy)phenyl]urea], the IC50 in data set [1] was 15 nM; in data set [3], 4100 nM; in data set [4], 3300 nM.

For `COCCOc1cccc2cc(NC(=O)Nc3ccc(Oc4ccnc5[nH]ccc45)cc3)ccc12` [Compound 3, 1-[5-(2-Methoxyethoxy)naphthalen-2-yl]-3-[4-(1H-pyrrolo[2,3-b]pyridin-4-yloxy)phenyl]urea], the IC50 in data set [1] was determined as 3.7 nM; in data set [5], 15 nM; in data set [3], 4400 nM; in data set [4] it was 3400 nM.

`O=C(Nc1ccc(Oc2ccnc3[nH]ccc23)cc1)Nc1ccc2c(CCF)cccc2c1` [Compound 42, 1-[5-(2-Fluoroethyl)naphthalen-2-yl]-3-[4-(1H-pyrrolo[2,3-b]pyridin-4-yloxy)phenyl]urea]: the IC50 in data set [1] came to 50 nM; in data set [5], 6 nM; in data set [3] it was 5900 nM; in data set [4], 4400 nM.

With `O=C(Nc1ccc(Oc2ccnc3[nH]ncc23)cc1)Nc1ccc(CCF)c(C(F)(F)F)c1` [Compound 23, 1-[4-(2-Fluoroethyl)-3-(trifluoromethyl)phenyl]-3-[4-(1H-pyrazolo[3,4-b]pyridin-4-yloxy)phenyl]urea], the IC50 in data set [2] turned out to be 3.7 nM; in data set [5], 6.9 nM; on Raf-1, 19 nM.
